# Laboratory results as given in PMC10764104, “Discovery of Molecular Glue Degraders via Isogenic Morphological Profiling” (ACS Chemical Biology, 2023).
# Target: T1, GSPT2 G566N (Homo sapiens, UniProt Q8IYD1, G566N)
# T1 construct: expressed in transfected cells; host or cells: RKO cells, lentiviral transduction, puromycin-selected
# Experiment: Western blot (HA-tag) of G-loop mutant GSPT2 in RKO cells
# Format: cell-based
# Settings: RKO cells stably overexpressing HA-GSPT2 G566N, 16 h; 10 μM FL2-14 or 10 nM CC-885
# Method: Figure 3 FL2-14 is a selective GSPT2 molecular glue degrader. (A) Structure of FL2-14 comprising fluorosulfate scaffold FL2 (black) and tail group modification 14 (blue). (B) DMSO-normalized quantitative proteomics after 16 h of treatment with FL2-14 (10 μM) in RKO WT (n = 2). […] (C) Structural alignment of AlphaFold models of GSPT1 (AF-P15170-F1-model_v4 in gray) and GSPT2 (AF-Q8IYD1-F1-model_v4 in blue). (D) Validation of GSPT2 degradation by FL2-14. […] (E) Dose–response of FL2-14 in RKO and HEK293T cells. Cells were treated with the FL2-14 (0 to 10 μM) for 16 h. (F) Degradation of GSPT2^WT or GSPT2^G566N.
# Prediction of the G‐loop degron sequence in GSPT2
# We first compiled all CRBN degron sequences with known crystal structures (Table S 2). We subsequently discarded 6UML as its degron sequence included an alanine instead of the typical glycine observed in the seventh amino acid residue of other degron sequences, leaving six degron sequences. We then scanned the latest AlphaFold structure of GSPT215 for a potential stretch of 10 amino acids that would align best with each degron sequence. We yielded the same stretch of amino acid residues from position 560 to 569 ([…]) and RMSD values under 0.5 Å.
# Table S 2: List of crystal structures used for the computational prediction of the G‐loop degron sequence […]
# PDB code Resolution (Å) Chain Segment Sequence Reference
# Analysis of G‐loop mutation […]
# T1 sequence (Q8IYD1 whole entry G566N): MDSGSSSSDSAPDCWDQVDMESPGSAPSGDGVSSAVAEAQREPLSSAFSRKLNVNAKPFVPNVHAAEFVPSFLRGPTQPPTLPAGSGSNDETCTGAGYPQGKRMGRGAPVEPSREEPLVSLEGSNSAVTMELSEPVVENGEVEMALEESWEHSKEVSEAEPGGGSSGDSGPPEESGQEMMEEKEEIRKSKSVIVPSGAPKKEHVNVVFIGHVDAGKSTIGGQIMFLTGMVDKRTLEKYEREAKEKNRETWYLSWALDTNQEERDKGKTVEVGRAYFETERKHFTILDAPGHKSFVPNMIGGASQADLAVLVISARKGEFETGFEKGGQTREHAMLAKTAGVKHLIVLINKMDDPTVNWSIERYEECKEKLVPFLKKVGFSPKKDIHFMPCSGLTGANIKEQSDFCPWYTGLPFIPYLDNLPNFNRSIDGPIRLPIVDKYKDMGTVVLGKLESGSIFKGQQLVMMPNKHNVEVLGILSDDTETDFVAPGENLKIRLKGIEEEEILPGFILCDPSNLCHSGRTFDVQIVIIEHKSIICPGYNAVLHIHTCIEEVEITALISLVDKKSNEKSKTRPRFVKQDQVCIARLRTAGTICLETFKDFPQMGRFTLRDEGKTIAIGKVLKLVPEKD
smiles,measurement,value
"Cc1ccc(NC(=O)NCc2ccc3c(c2)CN(C2CCC(=O)NC2=O)C3=O)cc1Cl (stereo not shown) [CC-885, reference compound]",degradation of HA-tagged GSPT2 G566N (glycine of G-loop replaced by asparagine),rescued degradation of GSPT2
